Experiments:
[1] = Determination of solubility in water (Tsol); type: physicochemical; conditions: minimum temperature for forming a kinetically stable (clear) 50% by weight solution in water; cooled 30° C./h to precipitation, reheated 1° C./h
Method: In each case, the solubility was calculated to refer to pure MGDA, without hydrate water.
The solubility of inventive mixtures and of comparison experiments was determined with an apparatus that allowed heating and cooling down liquid solutions. […] Then, the slurry of crystals of MGDA so obtained was again heated at a speed of 1° C./h until a clear solution was obtained. The slurry/solution was checked for solid particles by visible light scattering detection.
The above tests furnished the minimum temperature, Tsol, for forming a kinetically stable 50% by weight solution of the respective mixture of isomers. A higher temperature Tsol correlates with a lower solubility at ambient temperature.

[2] = Determination of stability against strong alkali (solid NaOH), visual inspection; conditions: for Appearance of test solutions after 96 h of storage: 25 g of 40% by weight aqueous solution, ambient temperature; for Solubility / appearance with increasing NaOH amounts (summary): 40% by weight aqueous solution, 0 to 2.5 g solid NaOH added, up to 96 hours

| Compound | Tsol [1] [°C] | Appearance of test solutions after 96 h of storage ([2]; NaOH added 0 g (0 wt. % vs. 40% solution)) | Appearance of test solutions after 96 h of storage ([2]; NaOH added 0.5 g (2 wt. % vs. 40% solution)) | Appearance of test solutions after 96 h of storage ([2]; NaOH added 1.0 g (4 wt. % vs. 40% solution)) | Appearance of test solutions after 96 h of storage ([2]; NaOH added 1.5 g (6 wt. % vs. 40% solution), * = after 48 hours, listed as Racemic MGDA) | Appearance of test solutions after 96 h of storage ([2]; NaOH added 2.0 g (8 wt. % vs. 40% solution), * = after 48 hours, listed as Racemic MGDA) | Appearance of test solutions after 96 h of storage ([2]; NaOH added 2.5 g (10 wt. % vs. 40% solution), ** = immediately after addition of NaOH, listed as Racemic MGDA) | Solubility / appearance with increasing NaOH amounts (summary) ([2]; listed as racemic MGDA) | Appearance of test solutions after 96 h of storage ([2]; NaOH added 1.5 g (6 wt. % vs. 40% solution), * = after 48 hours, listed as MGDA: 50% ee) | Appearance of test solutions after 96 h of storage ([2]; NaOH added 2.0 g (8 wt. % vs. 40% solution), * = after 48 hours, listed as MGDA: 50% ee) | Appearance of test solutions after 96 h of storage ([2]; NaOH added 2.5 g (10 wt. % vs. 40% solution), ** = immediately after addition of NaOH, listed as MGDA: 50% ee) | Solubility / appearance with increasing NaOH amounts (summary) ([2]; listed as mixture according to the present invention (50% ee)) |
| --- | --- | --- | --- | --- | --- | --- | --- | --- | --- | --- | --- | --- |
| CC(C(=O)O)N(CC(=O)O)CC(=O)O (stereo not drawn) [ee value zero, methyl glycine diacetic acid] | 103.8 | clear liquid | clear liquid | clear liquid | turbid* liquid | turbid* liquid | turbid, precipitate** | decreases with increasing NaOH amounts |  |  |  |  |
| CC(C(=O)O)N(CC(=O)O)CC(=O)O (stereo not drawn) [ee value 50.0, methyl glycine diacetic acid] |  |  |  |  |  |  |  |  | clear liquid | clear liquid | clear liquid | remains clear |

Source: US20170362498A1, “USE OF MGDA AS ADDITIVE IN PROCESSES FOR RECOVERING CRUDE OIL AND/OR GAS FROM SUBTERRANEAN FORMATIONS” (BASF SE, priority 2014, published 2017)
